#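 Five concentrations, 48 hours, 96-well plates. GI50 is the concentration that inhibits growth by half.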 The source made the active and inactive calls. Rule as the data show it: active = GI50 up to about 1.1 µM and inactive = higher.
# Tests used:
# Experiment in all cases: inhibition of tumour cell growth, NCI panel, 48 h
# CCRF-CEM = test system: CCRF-CEM
# COLO 205 = test system: COLO 205
# EKVX = test system: EKVX
# HCC 2998 = test system: HCC 2998
# HOP-62 = test system: HOP-62
# HOP-92 = test system: HOP-92
# KM12 = test system: KM12
# LOX IMVI = test system: LOX IMVI
# MCF7 = test system: MCF7
# MOLT-4 = test system: MOLT-4
# NCI-H23 = test system: NCI-H23
# NCI-H460 = test system: NCI-H460
# SF-295 = test system: SF-295
# SF-539 = test system: SF-539
# SN12C = test system: SN12C
# SNB-19 = test system: SNB-19
# TK-10 = test system: TK-10
# UACC-257 = test system: UACC-257
# UO-31 = test system: UO-31
# SNB-75 = test system: SNB-75
Compound,GI50 (CCRF-CEM),GI50 (COLO 205),GI50 (EKVX),GI50 (HCC 2998),GI50 (HOP-62),GI50 (HOP-92),GI50 (KM12),GI50 (LOX IMVI),GI50 (MCF7),GI50 (MOLT-4),GI50 (NCI-H23),GI50 (NCI-H460),GI50 (SF-295),GI50 (SF-539),GI50 (SN12C),GI50 (SNB-19),GI50 (TK-10),GI50 (UACC-257),GI50 (UO-31),GI50 (SNB-75)
C=C1C(=O)O[C@@H]2/C=C(\C)CC/C=C(\C)CC[C@@]12O,0.149 µM (active),1.84 µM (inactive),4.13 µM (inactive),5.31 µM (inactive),5.07 µM (inactive),1.78 µM (inactive),8.95 µM (inactive),1.9 µM (inactive),2.17 µM (inactive),1.41 µM (inactive),1.67 µM (inactive),9.55 µM (inactive),10.9 µM (inactive),1.2 µM (inactive),2.44 µM (inactive),5.43 µM (inactive),1.73 µM (inactive),4.86 µM (inactive),1.48 µM (inactive),
CC(C)(C)[Si](C)(C)OCCCC#CCO,38.7 µM (inactive),> 100 µM (inactive),> 100 µM (inactive),> 100 µM (inactive),,,> 100 µM (inactive),> 100 µM (inactive),,92.7 µM (inactive),> 100 µM (inactive),> 100 µM (inactive),> 100 µM (inactive),> 100 µM (inactive),> 100 µM (inactive),> 100 µM (inactive),> 100 µM (inactive),> 100 µM (inactive),> 100 µM (inactive),> 100 µM (inactive)
C[N+](C)(CCO)CCN1c2ccccc2Sc2ccccc21,> 10 µM (inactive),> 10 µM (inactive),> 10 µM (inactive),> 10 µM (inactive),> 10 µM (inactive),,> 10 µM (inactive),> 10 µM (inactive),> 10 µM (inactive),> 10 µM (inactive),> 10 µM (inactive),> 10 µM (inactive),> 10 µM (inactive),> 10 µM (inactive),> 10 µM (inactive),> 10 µM (inactive),> 10 µM (inactive),,3.52 µM (inactive),> 10 µM (inactive)
CC(=O)NC(CCCN(Cc1ccccc1)C(=O)N(C)N=O)C(=O)NCc1ccccc1 (configuration not stated),> 100 µM (inactive),> 100 µM (inactive),> 100 µM (inactive),> 100 µM (inactive),> 100 µM (inactive),> 100 µM (inactive),> 100 µM (inactive),> 100 µM (inactive),,57.1 µM (inactive),> 100 µM (inactive),> 100 µM (inactive),> 100 µM (inactive),> 100 µM (inactive),> 100 µM (inactive),> 100 µM (inactive),> 100 µM (inactive),> 100 µM (inactive),> 100 µM (inactive),27.4 µM (inactive)
Cc1cn(C2CC(O)C(Cn3cc(Cn4nc(Br)c(=O)[nH]c4=O)nn3)O2)c(=O)[nH]c1=O (configuration not stated),0.332 µM (active),> 100 µM (inactive),> 100 µM (inactive),> 100 µM (inactive),> 100 µM (inactive),,> 100 µM (inactive),,> 100 µM (inactive),> 100 µM (inactive),> 100 µM (inactive),,> 100 µM (inactive),> 100 µM (inactive),> 100 µM (inactive),> 100 µM (inactive),> 100 µM (inactive),> 100 µM (inactive),> 100 µM (inactive),> 100 µM (inactive)
COc1ccc(C[C@H](N)C(=O)N2C[C@@H](CO)C[C@@H](n3cnc4c(N(C)C)ncnc43)C2)cc1,> 100 µM (inactive),,> 100 µM (inactive),,> 100 µM (inactive),> 100 µM (inactive),> 100 µM (inactive),> 100 µM (inactive),,> 100 µM (inactive),> 100 µM (inactive),> 100 µM (inactive),> 100 µM (inactive),> 100 µM (inactive),,> 100 µM (inactive),> 100 µM (inactive),> 100 µM (inactive),> 100 µM (inactive),
COc1cc(C=O)cc(O)c1O,38.9 µM (inactive),> 100 µM (inactive),> 100 µM (inactive),> 100 µM (inactive),> 100 µM (inactive),,> 100 µM (inactive),> 100 µM (inactive),,> 100 µM (inactive),> 100 µM (inactive),76.6 µM (inactive),> 100 µM (inactive),> 100 µM (inactive),> 100 µM (inactive),> 100 µM (inactive),> 100 µM (inactive),> 100 µM (inactive),> 100 µM (inactive),> 100 µM (inactive)
COC1CCC(CO)OO1 (configuration not stated),13.9 µM (inactive),53.6 µM (inactive),,,9.64 µM (inactive),28.6 µM (inactive),30.9 µM (inactive),,,33.9 µM (inactive),18.8 µM (inactive),24.7 µM (inactive),14.1 µM (inactive),27.7 µM (inactive),,41.4 µM (inactive),,45.2 µM (inactive),35.1 µM (inactive),43.9 µM (inactive)
CN(C)C(=O)/N=C1\SC(=N\c2ccccc2)/C(=N/c2ccccc2)N1c1ccc([N+](=O)[O-])cc1,> 100 µM (inactive),> 100 µM (inactive),,> 100 µM (inactive),61.9 µM (inactive),,> 100 µM (inactive),,84.7 µM (inactive),> 100 µM (inactive),> 100 µM (inactive),> 100 µM (inactive),> 100 µM (inactive),,> 100 µM (inactive),> 100 µM (inactive),,,> 100 µM (inactive),41.6 µM (inactive)
Nc1nc(=O)[nH]cc1F [FLUCYTOSINE],,> 100 µM (inactive),> 100 µM (inactive),> 100 µM (inactive),> 100 µM (inactive),> 100 µM (inactive),> 100 µM (inactive),> 100 µM (inactive),> 100 µM (inactive),> 100 µM (inactive),> 100 µM (inactive),> 100 µM (inactive),> 100 µM (inactive),> 100 µM (inactive),> 100 µM (inactive),> 100 µM (inactive),> 100 µM (inactive),24 µM (inactive),> 100 µM (inactive),
Cc1ccc([N+](=O)[O-])cc1S(=O)(=O)Nc1ccc(C2=NN(C(=O)c3ccccc3)C(c3ccccc3)C2)cc1 (configuration not stated),24.9 µM (inactive),16.9 µM (inactive),16.3 µM (inactive),,15.9 µM (inactive),14.5 µM (inactive),26.2 µM (inactive),30.5 µM (inactive),17.1 µM (inactive),15.5 µM (inactive),21.4 µM (inactive),,16.9 µM (inactive),16.6 µM (inactive),21.8 µM (inactive),29.1 µM (inactive),18 µM (inactive),20.6 µM (inactive),22.4 µM (inactive),16.9 µM (inactive)
CC(=O)NC(CCCCNC(=O)OC(C)(C)C)C(=O)O (configuration not stated),> 100 µM (inactive),> 100 µM (inactive),> 100 µM (inactive),> 100 µM (inactive),> 100 µM (inactive),,,> 100 µM (inactive),> 100 µM (inactive),> 100 µM (inactive),,> 100 µM (inactive),> 100 µM (inactive),,,> 100 µM (inactive),> 100 µM (inactive),> 100 µM (inactive),> 100 µM (inactive),
C1CNCCNCCNCCN1,> 100 µM (inactive),37.5 µM (inactive),> 100 µM (inactive),64.3 µM (inactive),> 100 µM (inactive),,> 100 µM (inactive),> 100 µM (inactive),,64.6 µM (inactive),> 100 µM (inactive),35.8 µM (inactive),> 100 µM (inactive),> 100 µM (inactive),> 100 µM (inactive),> 100 µM (inactive),> 100 µM (inactive),> 100 µM (inactive),> 100 µM (inactive),> 100 µM (inactive)
CN(C)CCOC1(Cc2ccc(Cl)cc2Cl)CCC(C(C)(C)C)CC1 (configuration not stated),1.88 µM (inactive),1.56 µM (inactive),,1.57 µM (inactive),1.84 µM (inactive),,1.72 µM (inactive),1.78 µM (inactive),2.19 µM (inactive),1.85 µM (inactive),1.91 µM (inactive),< 0.01 µM (active),2.09 µM (inactive),2.02 µM (inactive),1.73 µM (inactive),2.22 µM (inactive),1.26 µM (inactive),1.11 µM (active),,4.27 µM (inactive)
COc1cc2c(oc(=O)c3cc4cc([Si](C)(C)C)oc4c(OC)c32)c2cccc(O)c12,> 100 µM (inactive),> 100 µM (inactive),> 100 µM (inactive),> 100 µM (inactive),> 100 µM (inactive),> 100 µM (inactive),> 100 µM (inactive),> 100 µM (inactive),,> 100 µM (inactive),> 100 µM (inactive),> 100 µM (inactive),> 100 µM (inactive),> 100 µM (inactive),> 100 µM (inactive),> 100 µM (inactive),> 100 µM (inactive),> 100 µM (inactive),> 100 µM (inactive),> 100 µM (inactive)
O=C(O)c1cccc(OCCO)c1,,> 100 µM (inactive),> 100 µM (inactive),,> 100 µM (inactive),> 100 µM (inactive),> 100 µM (inactive),> 100 µM (inactive),> 100 µM (inactive),> 100 µM (inactive),> 100 µM (inactive),> 100 µM (inactive),> 100 µM (inactive),> 100 µM (inactive),> 100 µM (inactive),> 100 µM (inactive),> 100 µM (inactive),> 100 µM (inactive),> 100 µM (inactive),

# Reference: ChEMBL document CHEMBL1201862, “PubChem BioAssay data set” (2004)
